From patent US20030032674A1, “Use of unsaturated fatty acids to treat severe inflammatory diseases” (priority 2001, published 2003)

Key:
[1] = tested on: COX-2 promoter; experiment: COX-2 promoter luciferase reporter, stably transfected RAW 264.7 cells, TLR agonist-induced; assay type: cell-based, murine; settings: pretreated 3 hrs
Procedure: Preparation of stably transfected cells with luciferase reporter plasmids. RAW 264.7 cells (1×10^6 cells) were plated in 100 mm dish and transfected with murine COX-2 promoter (−3.2 kb) luciferase plasmid using Superfect Transfection reagent (Qiagen) according to the manufacturer's instruction. pcDNA3/neo was co-transfected to select transfected cells using the antibiotic. After 48 hrs of stabilization, the new media containing Geneticin (500 μg/ml) was added and changed for appropriate time periods. Two weeks later, the colonies that survived were selected and propagated under Geneticin. After another two weeks of antibiotic selection, the luciferase activities were determined for each colony after treatment with LPS (100 ng/ml).
These stably transfected cell lines eliminated the necessity of transfecting plasmids for the reporter gene and the internal control. Thus, inhibitory or stimulatory effects of various fatty acids on agonist-induced TLR activation were quantitatively determined in a high throughput mode using 96 well plates. […] Therefore, NFκB activation and COX-2 expression was used as readouts for agonist-induced TLR activation, and its suppression or potentiation by fatty acids in this experiment. […]
(FIG. 10A). […] After 8 hrs, luciferase activities were determined. Data are expressed as a percentage of PamCAG treatment alone.

[2] = biological target: T1, TLR2 (Homo sapiens, UniProt O60603); experiment: NFκB reporter in TLR2-transfected 293T cells; assay type: cell-based; settings: PamCAG 100 ng/ml
T1 construct: expressed in transfected cells; host or cells: 293T (stated not to express TLR2)
T1 sequence (O60603 21-784, species assumed): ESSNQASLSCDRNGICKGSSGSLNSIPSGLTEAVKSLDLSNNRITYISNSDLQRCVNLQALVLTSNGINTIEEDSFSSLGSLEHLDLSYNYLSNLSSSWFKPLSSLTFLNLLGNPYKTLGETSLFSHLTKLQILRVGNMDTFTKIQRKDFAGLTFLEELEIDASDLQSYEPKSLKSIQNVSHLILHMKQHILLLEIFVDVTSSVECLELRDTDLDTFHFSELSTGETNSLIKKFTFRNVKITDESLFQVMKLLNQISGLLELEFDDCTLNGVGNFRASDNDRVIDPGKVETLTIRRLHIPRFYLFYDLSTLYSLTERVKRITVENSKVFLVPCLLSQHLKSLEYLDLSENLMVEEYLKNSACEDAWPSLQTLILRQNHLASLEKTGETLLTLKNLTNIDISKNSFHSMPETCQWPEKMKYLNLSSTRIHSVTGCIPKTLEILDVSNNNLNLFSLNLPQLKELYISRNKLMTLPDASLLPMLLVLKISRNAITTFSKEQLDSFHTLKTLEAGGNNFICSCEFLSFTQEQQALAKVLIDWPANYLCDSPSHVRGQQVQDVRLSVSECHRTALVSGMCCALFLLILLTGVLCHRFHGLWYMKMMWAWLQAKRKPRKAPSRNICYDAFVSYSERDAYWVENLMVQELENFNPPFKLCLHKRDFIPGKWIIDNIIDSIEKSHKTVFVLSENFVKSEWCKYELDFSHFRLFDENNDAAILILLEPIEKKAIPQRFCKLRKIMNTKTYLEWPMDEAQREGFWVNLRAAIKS
Description: Plasmids and DNA Constructs—All plasmids and constructs were obtained or made as reported in either S. H. Rhee and D. Hwang, “Murine TOLL-like receptor 4 confers lipopolysaccaride responsiveness as determined by activation of NFκB and expression of the inducible cyclooxygenase,” Journal of Biological Chemistry, vol. 275, pp. 34035-34040 (2000); and J. Y. Lee et al., “Saturated fatty acids, but not unsaturated fatty acids, induce the expression of cyclooxygenase-2 mediated through TOLL-like receptor 4,” Journal of Biological Chemistry, vol. 276, pp. 16683-16689 (2001). Briefly, the luciferase reporter plasmids (pGL2) containing the promoter region of the murine COX-2 gene (−3201/+93 or −1017/+93) were provided by David Dewitt (Michigan State University, East Lansing, Mich.). To prepare the wild-type COX-2 promoter fragment, polymerase chain reaction (PCR) was performed with the primers named Kpn-COX2-For and Hind-COX2-Rev using the murine COX-2 (−1017/+93) luciferase reporter plasmid as a template. To prepare the mutant COX-2 promoter fragment containing mutated NFκB site, Kpn-COX2-Fmut and Hind-COX2-Rev were used as primers. […]
Acylation by saturated fatty acids of bacterial lipopeptides is also required for the activation of TLR2. […] After 18 hr, luciferase activities were determined. […]

effect on NFκB activation induced by PamCAG [2]: potentiated
Structure (SMILES): CCCCCCCCCCCC(=O)O [lauric acid]
effect on LPS-induced COX-2 expression (reporter gene) ([1]; LPS 200 ng/ml 8 hrs): potentiated
effect on PamCAG-induced COX-2 expression ([1]; PamCAG 500 ng/ml 8 hrs): potentiated
